Measurements as given in USRE49022E1, “Insecticidal compounds” (SYNGENTA PARTICIPATIONS AG, priority 2013, dated 2022).

Experiments:
Format in all cases: in vivo
[1] = test system: Myzus persicae (Green Peach Aphid); test: Myzus persicae, sucrose solution / Parafilm test; details: 120 h, mixed with sucrose solution under Parafilm, mortality 5 days after infestation
Excerpt: Test compounds were applied by pipette into 24 well plates and mixed with Sucrose solution. Application rate: 12.5 ppm. The plates were closed with a stretched Parafilm. A plastic stencil with 24 holes is placed onto the plate and infested pea seedlings were placed directly on the Parafilm. The infested plate is closed with a gel blotting paper and another plastic stencil and then turned upside down. 5 days after infestation the samples were checked on mortality.

[2] = test system: Plutella xylostella (Diamond Back Moth); test: Plutella xylostella, artificial diet MTP test; details: 144 h, 200 ppm (concentration in well 18 ppm), L2 larvae, 6 days
Procedure: 24-well microtiter plate (MTP) with artificial diet was treated with test solutions at an application rate of 200 ppm (concentration in well 18 ppm) by pipetting. After drying, the MTP's were infested with L2 larvae (7-12 per well). After an incubation period of 6 days, samples were checked for larval mortality and growth regulation. The following compound gave at least 80% mortality of Plutella xylostella: 1, 2, 3, 4, 5, 6, 7, 8, 9, 10, 11, 12, 13, 14, 15, 16, 17, 18, 19, 20, 21, 22, 23, 24, 25, 26, 27, 28, 29, 30, 31, 32, 33, 34, 35, 36, 37, 38, 39, 40, 41, 42, 43, 44, 45, 46, 47, 48, 49, 50.

[3] = test system: Myzus persicae (Green Peach Aphid); test: Myzus persicae, sunflower leaf disc spray test; details: foliar, 144 h, sprayed sunflower leaf discs, aphid population of mixed ages, mortality after 6 DAT
Procedure: Sunflower leaf discs were placed on agar in a 24-well microtiter plate and sprayed with test solutions at an application rate of 200 ppm. After drying, the leaf discs were infested with an aphid population of mixed ages. After an incubation period of 6 DAT, samples were checked for mortality.

[4] = test system: Tetranychus urticae (Two-Spotted Spider Mite); test: Tetranychus urticae, bean leaf disc spray test; details: foliar, 192 h, sprayed bean leaf discs, mite populations of mixed ages, 8 days
Excerpt: Bean leaf discs on agar in 24-well microtiter plates were sprayed with test solutions at an application rate of 200 ppm. After drying, the leaf discs are infested with mite populations of mixed ages. 8 days later, discs were checked for mortality.

[5] = test system: Spodoptera littoralis (Egyptian Cotton Leaf Worm); test: Spodoptera littoralis, agar / lettuce root uptake test; details: 144 h, mixed with agar, uptake by lettuce roots, mortality 6 days after infestation
Excerpt: Test compounds were applied by pipette into 24 well plates and mixed with agar. Application rate: 12.5 ppm. Lettuce seeds were placed on the agar and the multi well plate is closed by another plate which contains also agar. After 7 days the roots have absorbed the compound and the lettuce has grown into the lid plate. The lettuce leafs were now cut off into the lid plate. Spodoptera eggs were pipetted through a plastic stencil on a humid gel blotting paper and the plate closed with it. The samples are checked for mortality 6 days after infestation.

[6] = test system: Thrips tabaci (Onion Thrips); test: Thrips tabaci, sunflower leaf disc spray test; details: foliar, 168 h, sprayed sunflower leaf discs, mortality after 7 days
[7] = test system: Diabrotica balteata (Corn Root Worm); test: Diabrotica balteata, artificial diet MTP test; details: 120 h, 200 ppm (concentration in well 18 ppm), L2 larvae, larval mortality after 5 days
Procedure: A 24-well microtiter plate (MTP) with artificial diet was treated with test solutions at an application rate of 200 ppm (concentration in well 18 ppm) by pipetting. After drying, the MTP's were infested with L2 larvae (6-10 per well). After an incubation period of 5 days, samples were checked for larval mortality The following compound gave at least 80% control of Diabrotica balteata: 1, 2, 3, 4, 5, 6, 7, 8, 9, 10, 11, 12, 13, 14, 15, 16, 17, 18, 19, 20, 21, 22, 23, 24, 25, 26, 27, 28, 29, 30, 31, 32, 33, 34, 35, 36, 37, 38, 39, 40, 41, 42, 43, 44, 45, 46, 47, 48, 49, 50, 51.

[8] = test system: Spodoptera littoralis (Egyptian Cotton Leafworm); test: Spodoptera littoralis, cotton leaf disc spray test; details: foliar, 72 h, sprayed cotton leaf discs, L1 larvae, 3 days after treatment
Excerpt: Cotton leaf discs were placed on agar in a 24-well microtiter plate and sprayed with test solutions at an application rate of 200 ppm. After drying, the leaf discs were infested with 5 L1 larvae. The samples were checked for mortality 3 days after treatment (DAT).

CCN(C(=O)c1cc[n+]([O-])cc1)c1cccc(C(=O)Nc2c(Br)cc(C(F)(C(F)(F)F)C(F)(F)Cl)cc2OC(F)F)c1F (centres unmarked) [Compound 43]
≥ 80%: pest or weed control at 12.5 ppm [1] | mortality at 200 ppm [2] | pest or weed control at 200 ppm [3] | mortality at 200 ppm [4] | pest or weed control at 12.5 ppm [5] | pest or weed control at 200 ppm [6] | pest or weed control at 200 ppm [7] | mortality at 200 ppm [8]

CCN(C(=O)c1ccncc1)c1cccc(C(=O)Nc2c(Cl)cc(C(F)(C(F)(F)F)C(F)(F)Br)cc2Br)c1OC (centres unmarked) [Compound 2, N-[3-[[2-bromo-4-[1-[bromo(difluoro)methyl]-1,2,2,2-tetrafluoro-ethyl]-6-chloro-phenyl]carbamoyl]-2-methoxy-phenyl]-N-ethyl-pyridine-4-carboxamide]
≥ 80%: pest or weed control at 12.5 ppm [1] | mortality at 200 ppm [2] | pest or weed control at 200 ppm [3] | mortality at 200 ppm [4] | pest or weed control at 12.5 ppm [5] | pest or weed control at 200 ppm [6] | pest or weed control at 200 ppm [7] | mortality at 200 ppm [8]

O=C(Nc1cccc(C(=O)Nc2c(Br)cc(C(F)(C(F)(F)F)C(F)(F)Br)cc2OC(F)F)c1F)c1cc[n+]([O-])cc1 (centres unmarked) [Compound 6]
≥ 80%: pest or weed control at 12.5 ppm [1] | mortality at 200 ppm [2] | pest or weed control at 200 ppm [3] | mortality at 200 ppm [4] | pest or weed control at 12.5 ppm [5] | pest or weed control at 200 ppm [6] | pest or weed control at 200 ppm [7] | mortality at 200 ppm [8]

N#Cc1ccc(C(=O)Nc2cccc(C(=O)Nc3c(Br)cc(C(F)(C(F)(F)F)C(F)(F)Br)cc3OC(F)F)c2F)cc1 (centres unmarked) [Compound 5]
≥ 80%: pest or weed control at 12.5 ppm [1] | mortality at 200 ppm [2] | pest or weed control at 200 ppm [3] | mortality at 200 ppm [4] | pest or weed control at 12.5 ppm [5] | pest or weed control at 200 ppm [6] | pest or weed control at 200 ppm [7] | mortality at 200 ppm [8]

COc1c(NC(=O)c2cccnc2)cccc1C(=O)Nc1c(Br)cc(C(F)(C(F)(F)F)C(F)(F)Cl)cc1OC(F)F (centres unmarked) [Compound 15]
≥ 80%: pest or weed control at 12.5 ppm [1] | mortality at 200 ppm [2] | pest or weed control at 200 ppm [3] | mortality at 200 ppm [4] | pest or weed control at 12.5 ppm [5] | pest or weed control at 200 ppm [6] | pest or weed control at 200 ppm [7] | mortality at 200 ppm [8]

CCN(C(=O)c1ccc(C#N)cc1)c1cccc(C(=O)Nc2c(Br)cc(C(F)(C(F)(F)F)C(F)(F)Cl)cc2OC(F)F)c1F (centres unmarked) [Compound 31]
≥ 80%: pest or weed control at 12.5 ppm [1] | mortality at 200 ppm [2] | pest or weed control at 200 ppm [3] | mortality at 200 ppm [4] | pest or weed control at 12.5 ppm [5] | pest or weed control at 200 ppm [6] | pest or weed control at 200 ppm [7] | mortality at 200 ppm [8]

CCN(C(=O)c1ccc(C#N)cc1)c1cccc(C(=O)Nc2c(Br)cc(C(F)(C(F)(F)F)C(F)(F)Br)cc2OC(F)F)c1OC (centres unmarked) [Compound 10]
≥ 80%: pest or weed control at 12.5 ppm [1] | mortality at 200 ppm [2] | pest or weed control at 200 ppm [3] | mortality at 200 ppm [4] | pest or weed control at 12.5 ppm [5] | pest or weed control at 200 ppm [6] | pest or weed control at 200 ppm [7] | mortality at 200 ppm [8]

CCN(C(=O)c1ccncc1)c1cccc(C(=O)Nc2c(Br)cc(C(F)(C(F)(F)F)C(F)(F)Cl)cc2OC(F)F)c1F (centres unmarked) [Compound 35]
≥ 80%: pest or weed control at 12.5 ppm [1] | mortality at 200 ppm [2] | pest or weed control at 200 ppm [3] | mortality at 200 ppm [4] | pest or weed control at 12.5 ppm [5] | pest or weed control at 200 ppm [6] | pest or weed control at 200 ppm [7] | mortality at 200 ppm [8]

COc1c(NC(=O)c2cc[n+]([O-])cc2)cccc1C(=O)Nc1c(Br)cc(C(F)(C(F)(F)F)C(F)(F)Cl)cc1OC(F)F (centres unmarked) [Compound 25]
≥ 80%: pest or weed control at 12.5 ppm [1] | mortality at 200 ppm [2] | pest or weed control at 200 ppm [3] | mortality at 200 ppm [4] | pest or weed control at 12.5 ppm [5] | pest or weed control at 200 ppm [6] | pest or weed control at 200 ppm [7] | mortality at 200 ppm [8]

CCN(C(=O)c1ccc(C#N)cc1)c1cccc(C(=O)Nc2c(Cl)cc(C(F)(C(F)(F)F)C(F)(F)Br)cc2Br)c1OC (centres unmarked) [Compound 1, N-[2-bromo-4-[1-[bromo(difluoro)methyl]-1,2,2,2-tetrafluoro-ethyl]-6-chloro-phenyl]-3-[(4-cyanobenzoyl)-ethyl-amino]-2-methoxy-benzamide]
≥ 80%: pest or weed control at 12.5 ppm [1] | mortality at 200 ppm [2] | pest or weed control at 200 ppm [3] | mortality at 200 ppm [4] | pest or weed control at 12.5 ppm [5] | pest or weed control at 200 ppm [6] | pest or weed control at 200 ppm [7] | mortality at 200 ppm [8]

CCN(C(=O)c1ccncc1)c1cccc(C(=O)Nc2c(Br)cc(C(F)(C(F)(F)F)C(F)(F)Br)cc2OC(F)F)c1OC (centres unmarked) [Compound 9]
≥ 80%: pest or weed control at 12.5 ppm [1] | mortality at 200 ppm [2] | pest or weed control at 200 ppm [3] | mortality at 200 ppm [4] | pest or weed control at 12.5 ppm [5] | pest or weed control at 200 ppm [6] | pest or weed control at 200 ppm [7] | mortality at 200 ppm [8]

COc1c(NC(=O)c2ccc[n+]([O-])c2)cccc1C(=O)Nc1c(Br)cc(C(F)(C(F)(F)F)C(F)(F)Cl)cc1OC(F)F (centres unmarked) [Compound 26]
≥ 80%: pest or weed control at 12.5 ppm [1] | mortality at 200 ppm [2] | pest or weed control at 200 ppm [3] | mortality at 200 ppm [4] | pest or weed control at 12.5 ppm [5] | pest or weed control at 200 ppm [6] | pest or weed control at 200 ppm [7] | mortality at 200 ppm [8]

CCN(C(=O)c1ccncc1)c1cccc(C(=O)Nc2c(Br)cc(C(F)(C(F)(F)F)C(F)(F)Br)cc2OC(F)F)c1F (centres unmarked) [Compound 7]
≥ 80%: pest or weed control at 12.5 ppm [1] | mortality at 200 ppm [2] | pest or weed control at 200 ppm [3] | mortality at 200 ppm [4] | pest or weed control at 12.5 ppm [5] | pest or weed control at 200 ppm [6] | pest or weed control at 200 ppm [7] | mortality at 200 ppm [8]

COc1c(NC(=O)c2ccc(C#N)cc2)cccc1C(=O)Nc1c(Br)cc(C(F)(C(F)(F)F)C(F)(F)Cl)cc1OC(F)F (centres unmarked) [Compound 16]
≥ 80%: pest or weed control at 12.5 ppm [1] | mortality at 200 ppm [2] | pest or weed control at 200 ppm [3] | mortality at 200 ppm [4] | pest or weed control at 12.5 ppm [5] | pest or weed control at 200 ppm [6] | pest or weed control at 200 ppm [7] | mortality at 200 ppm [8]

O=C(Nc1cccc(C(=O)Nc2c(Br)cc(C(F)(C(F)(F)F)C(F)(F)Br)cc2OC(F)F)c1F)c1ccncc1 (centres unmarked) [Compound 4]
≥ 80%: pest or weed control at 12.5 ppm [1] | mortality at 200 ppm [2] | pest or weed control at 200 ppm [3] | mortality at 200 ppm [4] | pest or weed control at 12.5 ppm [5] | pest or weed control at 200 ppm [6] | pest or weed control at 200 ppm [7] | mortality at 200 ppm [8]

CCc1cc(C(F)(C(F)(F)F)C(F)(F)Cl)cc(Br)c1NC(=O)c1cccc(N(CC)C(=O)c2ccc[n+]([O-])c2)c1OC (centres unmarked) [Compound 50]
≥ 80%: pest or weed control at 12.5 ppm [1] | mortality at 200 ppm [2] | pest or weed control at 200 ppm [3] | mortality at 200 ppm [4] | pest or weed control at 12.5 ppm [5] | pest or weed control at 200 ppm [6] | pest or weed control at 200 ppm [7] | mortality at 200 ppm [8]
